This passage reports IC50 results from patent publication US7741493B2, “Heterocyclic compounds as P2X7 ion channel blockers” (Aventis Pharmaceuticals Inc., priority 2003, dated 2010).

Where “and” joins values, the source holds several entries; their conditions need not be identical. Equal values may be shown once. Where a name gives a salt, the structure may show the parent alone.

The first assay concerns the target T1, P2X7 (Homo sapiens, UniProt Q99572).
T1 sequence (Q99572 1-595): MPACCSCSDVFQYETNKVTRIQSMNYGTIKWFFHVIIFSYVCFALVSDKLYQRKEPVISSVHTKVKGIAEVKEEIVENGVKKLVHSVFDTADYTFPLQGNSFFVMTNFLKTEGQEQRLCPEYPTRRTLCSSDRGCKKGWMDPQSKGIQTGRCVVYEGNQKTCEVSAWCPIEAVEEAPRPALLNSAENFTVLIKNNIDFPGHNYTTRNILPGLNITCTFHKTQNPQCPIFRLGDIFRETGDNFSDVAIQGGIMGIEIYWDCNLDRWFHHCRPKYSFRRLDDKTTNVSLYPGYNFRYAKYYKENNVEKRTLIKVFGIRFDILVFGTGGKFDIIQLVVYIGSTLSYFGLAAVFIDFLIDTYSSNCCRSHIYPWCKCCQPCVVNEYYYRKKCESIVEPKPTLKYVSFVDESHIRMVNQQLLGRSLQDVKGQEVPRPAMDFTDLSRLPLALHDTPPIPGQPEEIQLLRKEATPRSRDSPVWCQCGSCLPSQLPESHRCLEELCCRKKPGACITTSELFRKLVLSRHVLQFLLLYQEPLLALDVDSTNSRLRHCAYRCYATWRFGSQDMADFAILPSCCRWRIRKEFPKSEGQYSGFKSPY
Briefly: YO-PRO-1 dye uptake assay in U373 cells stably expressing P2X7. Also noted: The complete open reading frame of human P2X7 was amplified from Incyte clone 148057; expressed in transfected cells. Conditions: IC50 (nM), dye uptake through P2X7, U373 cells, 300 μM BzATP, 5 μM YO-PRO-1, test compounds 30 nM to 3 μM. In kind it is cell-based. A digest of the protocol:
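U373 cells stably expressing human P2X7 preincubated 20 min at 37° C. with compound (30 nM to 3 μM) in Mg/Ca-free HBSS. YO-PRO-1 (5 μM final) and BzATP (300 μM final) then added for 1.5 h at 37° C.; dye-uptake fluorescence compared with compound-free control.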
One may read the IC50 as the concentration that inhibits the measured activity by half. Molecule `Cc1ccccc1CC1=N[C@H](c2ccccc2)[C@H](c2ccccc2)N1` [cis-4,5-diphenyl-2-(2-methylbenzyl)-4,5-dihydro-1H-imidazole] yielded an IC50 of 321 nM. Still for that read-out and setting: then `c1ccc(CCC2=N[C@H](c3ccccc3)[C@H](c3ccccc3)N2)cc1` [cis-4,5-diphenyl-2-(2-phenylethyl)-4,5-dihydro-1H-imidazole], with 77 nM; and `Fc1cccc(CC2=N[C@H](c3ccccc3)[C@H](c3ccccc3)N2)c1` [cis-4,5-diphenyl-2-(3-fluorobenzyl)-4,5-dihydro-1H-imidazole], with 80 nM.

The assay is the same for the next values; noted with them: dye uptake through P2X7, U373 cells, 300 μM BzATP, 5 μM YO-PRO-1, test compounds 30 nM to 3 μM; read-out: IC50.
Regarding `Cc1cccc([C@H]2NC(NCc3ccccc3)=N[C@H]2c2cccc(C)c2)c1` [[cis-4,5-bis-(3-Methylphenyl)-4,5-dihydro-1H-imidazol-2-yl]-benzylamine hydrochloride], the IC50 was determined as 157 nM. With `Fc1ccc(CNC2=N[C@@H](c3ccc(Cl)cc3)[C@@H](c3ccc(Cl)cc3)N2)cc1F` [[cis-4,5-bis-(4-Chlorophenyl)-4,5-dihydro-1H-imidazol-2-yl]-(3,4-difluorobenzyl)-amine hydrochloride], the IC50 was 400 nM.

`Clc1ccc([C@H]2NC(NCc3ccccc3)=N[C@H]2c2ccc(Cl)cc2)cc1` [[cis-4,5-bis-(4-Chlorophenyl)-4,5-dihydro-1H-imidazol-2-yl]-benzylamine hydrochloride]: the IC50 amounted to 404 nM. `Fc1ccc([C@H]2NC(NCc3ccccc3)=N[C@H]2c2ccc(F)cc2)cc1` [[cis-4,5-bis-(4-Fluorophenyl)-4,5-dihydro-1H-imidazol-2-yl]-benzylamine hydrochloride]: the IC50 was 371 nM.

As to `Cc1ccc([C@H]2NC(NCc3ccc(F)c(F)c3)=N[C@H]2c2ccc(C)cc2)cc1` [[cis-4,5-bis-(4-Methylphenyl)-4,5-dihydro-1H-imidazol-2-yl]-(3,4-difluorobenzyl)-amine hydrochloride], the IC50 came out at 150 nM. For the molecule `Cc1ccc([C@H]2NC(NCc3cccc(F)c3)=N[C@H]2c2ccc(C)cc2)cc1` [[cis-4,5-bis-(4-Methylphenyl)-4,5-dihydro-1H-imidazol-2-yl]-(3-fluorobenzyl)amine hydrochloride], the half-maximal inhibitory concentration (IC50) was 134 nM. As for `Cc1ccc([C@H]2NC(NCc3ccc(F)cc3)=N[C@H]2c2ccc(C)cc2)cc1` [[cis-4,5-bis-(4-Methylphenyl)-4,5-dihydro-1H-imidazol-2-yl]-(4-fluorobenzyl)amine hydrochloride], the IC50 was found to be 287 nM. For the molecule `Cc1ccc([C@H]2NC(NCc3ccccc3)=N[C@H]2c2ccc(C)cc2)cc1` [[cis-4,5-bis-(4-Methylphenyl)-4,5-dihydro-1H-imidazol-2-yl]-benzylamine hydrochloride], the IC50 was 275 nM.

Turning to `Fc1cccc([C@H]2NC(CCc3ccccc3)=N[C@H]2c2cccc(F)c2)c1` [cis-4,5-bis(3-fluorophenyl)-2-(2-phenylethyl)-4,5-dihydro-1H-imidazole], the IC50 was 146 nM. As for `Fc1ccc([C@H]2NC(CCc3ccccc3)=N[C@H]2c2ccc(F)cc2)cc1` [cis-4,5-bis(4-fluorophenyl)-2-(2-phenylethyl)-4,5-dihydro-1H-imidazole], the IC50 amounted to 277 nM. On to `Fc1ccc(CNC2=N[C@@H](c3ccccc3)[C@@H](c3ccccc3)N2)c(F)c1` [cis-4,5-diphenyl-2-(2,4-difluorobenzyl)amino-4,5-dihydro-1H-imidazole], for which the IC50 stood at 289 nM.

Turning to `Cc1ccccc1CCC1=N[C@H](c2ccccc2)[C@H](c2ccccc2)N1` [cis-4,5-diphenyl-2-(2-(2-methylphenyl)ethyl)-4,5-dihydro-1H-imidazole], the IC50 is 42 nM. The same measure, in the same setting: for `Brc1ccccc1CC1=N[C@@H](c2ccccc2)[C@@H](c2ccccc2)N1` [cis-4,5-diphenyl-2-(2-bromobenzyl)-4,5-dihydro-1H-imidazole] the value was 321 nM; for `Brc1ccccc1CNC1=N[C@@H](c2ccccc2)[C@@H](c2ccccc2)N1` [cis-4,5-diphenyl-2-(2-bromobenzyl)amino-4,5-dihydro-1H-imidazole], 503 nM. `Brc1ccccc1CSC1=N[C@@H](c2ccccc2)[C@@H](c2ccccc2)N1` [cis-4,5-diphenyl-2-(2-bromobenzyl)thio-4,5-dihydro-1H-imidazole]: the IC50 is 521 nM. For `Fc1ccc(CNC2=N[C@@H](c3ccccc3)[C@@H](c3ccccc3)N2)c(Cl)c1` [cis-4,5-diphenyl-2-(2-chloro-4-fluorobenzyl)amino-4,5-dihydro-1H-imidazole], the IC50 turned out to be 247 nM. On to `Clc1ccccc1CC1=N[C@H](c2ccccc2)[C@H](c2ccccc2)N1` [cis-4,5-diphenyl-2-(2-chlorobenzyl)-4,5-dihydro-1H-imidazole], for which the IC50 was 163 nM and 160 nM. Take `Clc1ccccc1CNC1=N[C@@H](c2ccccc2)[C@@H](c2ccccc2)N1` [cis-4,5-diphenyl-2-(2-chlorobenzyl)amino-4,5-dihydro-1H-imidazole]: the IC50 was 587 nM. Consider `Clc1ccccc1CSC1=N[C@@H](c2ccccc2)[C@@H](c2ccccc2)N1` [cis-4,5-diphenyl-2-(2-chlorobenzyl)thio-4,5-dihydro-1H-imidazole], for which the IC50 was determined as 630 nM. For `Fc1ccccc1CC1=N[C@H](c2ccccc2)[C@H](c2ccccc2)N1` [cis-4,5-diphenyl-2-(2-fluorobenzyl)-4,5-dihydro-1H-imidazole], the IC50 was determined as 577 nM. Turning to `Fc1ccccc1CNC1=N[C@@H](c2ccccc2)[C@@H](c2ccccc2)N1` [cis-4,5-diphenyl-2-(2-fluorobenzyl)amino-4,5-dihydro-1H-imidazole], the IC50 stood at 409 nM. Consider `Fc1ccccc1CSC1=N[C@@H](c2ccccc2)[C@@H](c2ccccc2)N1` [cis-4,5-diphenyl-2-(2-fluorobenzyl)thio-4,5-dihydro-1H-imidazole], for which the IC50 turned out to be 819 nM. As for `Ic1ccccc1CSC1=N[C@@H](c2ccccc2)[C@@H](c2ccccc2)N1` [cis-4,5-diphenyl-2-(2-iodobenzyl)thio-4,5-dihydro-1H-imidazole], the IC50 worked out at 647 nM. Take `COc1ccccc1CNC1=N[C@@H](c2ccccc2)[C@@H](c2ccccc2)N1` [cis-4,5-diphenyl-2-(2-methoxybenzyl)amino-4,5-dihydro-1H-imidazole]: the IC50 was 409 nM. As to `Cc1ccccc1CNC1=N[C@@H](c2ccccc2)[C@@H](c2ccccc2)N1` [cis-4,5-diphenyl-2-(2-methylbenzyl)amino-4,5-dihydro-1H-imidazole], the IC50 was determined as 243 nM. In the case of `Cc1ccccc1CSC1=N[C@@H](c2ccccc2)[C@@H](c2ccccc2)N1` [cis-4,5-diphenyl-2-(2-methylbenzyl)thio-4,5-dihydro-1H-imidazole], the IC50 was found to be 449 nM. Same read-out and setting: for `Clc1ccc(CNC2=N[C@@H](c3ccccc3)[C@@H](c3ccccc3)N2)cc1Cl` [cis-4,5-diphenyl-2-(3,4-dichlorobenzyl)amino-4,5-dihydro-1H-imidazole] the value was 307 nM; for `Brc1cccc(CNC2=N[C@@H](c3ccccc3)[C@@H](c3ccccc3)N2)c1` [cis-4,5-diphenyl-2-(3-bromobenzyl)amino-4,5-dihydro-1H-imidazole], 225 nM; for `Clc1cccc(CC2=N[C@@H](c3ccccc3)[C@@H](c3ccccc3)N2)c1` [cis-4,5-diphenyl-2-(3-chlorobenzyl)-4,5-dihydro-1H-imidazole], 34 nM. As to `Clc1cccc(CNC2=N[C@@H](c3ccccc3)[C@@H](c3ccccc3)N2)c1` [cis-4,5-diphenyl-2-(3-chlorobenzyl)amino-4,5-dihydro-1H-imidazole], the IC50 amounted to 164 nM. As to `Clc1cccc(CSC2=N[C@@H](c3ccccc3)[C@@H](c3ccccc3)N2)c1` [cis-4,5-diphenyl-2-(3-chlorobenzyl)thio-4,5-dihydro-1H-imidazole], the IC50 stood at 634 nM.

In the case of `Fc1cccc(CC2=N[C@H](c3ccccc3)[C@H](c3ccccc3)N2)c1` [cis-4,5-diphenyl-2-(3-fluorobenzyl)-4,5-dihydro-1H-imidazole], the IC50 turned out to be 84 nM. Regarding `Fc1cccc(CSC2=N[C@@H](c3ccccc3)[C@@H](c3ccccc3)N2)c1` [cis-4,5-diphenyl-2-(3-fluorobenzyl)thio-4,5-dihydro-1H-imidazole], the IC50 is 240 nM.

With `COc1cccc(CNC2=N[C@@H](c3ccccc3)[C@@H](c3ccccc3)N2)c1` [cis-4,5-diphenyl-2-(3-methoxybenzyl)amino-4,5-dihydro-1H-imidazole], the IC50 was 386 nM. Regarding `Cc1cccc(CC2=N[C@@H](c3ccccc3)[C@@H](c3ccccc3)N2)c1` [cis-4,5-diphenyl-2-(3-methylbenzyl)-4,5-dihydro-1H-imidazole], the IC50 was 376 nM. Turning to `Cc1cccc(CNC2=N[C@@H](c3ccccc3)[C@@H](c3ccccc3)N2)c1` [cis-4,5-diphenyl-2-(3-methylbenzyl)amino-4,5-dihydro-1H-imidazole], the IC50 is 187 nM. The same measure, in the same setting: then `Cc1cccc(CSC2=N[C@@H](c3ccccc3)[C@@H](c3ccccc3)N2)c1` [cis-4,5-diphenyl-2-(3-methylbenzyl)thio-4,5-dihydro-1H-imidazole], with 722 nM.
